According to patent publication US7141585B2 (dated 2006):

- melting point: 105.8 to 107.5 °C
SMILES: CCOC(=O)c1c(Cc2cc(Cl)cc(Cl)c2)c(C)nn1CCO
